Reference: PMC10113214 (Scientific Reports, 2023)

Tests used:
Rheology of hydrogels = type: physicochemical; conditions: 1% hydrogel, 37 °C
Experimental: Rheological parameters of the hydrogels were identified using an MCR 302 rheometer (Anton Paar GmbH, Graz, Austria). The rheometer was equipped with a CP50-1 stainless steel cone-and-plate system of 50 mm diameter, 1° cone angle and 50 µm cone truncation and a Peltier controlled temperature unit. An aliquot of 900 µL of 1% hydrogel was applied to a plate cone. The linear viscoelastic (LVE) region was determined through an amplitude sweeps: shear strain (0.01–100% at 6 rad s^−1) and shear stress (0.001–10 Pa at 6.28 rad s^−1). Frequency sweep were measured from 0.01 to 100 rad s^−1 at 2.5% strain. The frequency dependence of the storage modulus (G’) and loss modulus (G”) of the hydrogels were measured at 37 °C. All experiments were carried out in triplicate and reported as the mean of three repeats.

[1] = Circular dichroism, conformation and thermal stability of β-sheet; type: physicochemical
Experimental: The molar ellipticity of peptides were registered on a Jasco J-815 spectrometer (JASCO, Easton, MD, USA). Solutions of peptide hybrids were prepared in water solution (10 mg/ml), incubated at 37 °C for 4 h and then diluted to a final concentration of 0.20 mg/ml. CD spectra measurements were performed at 25 °C, 30 °C, 35 °C, 40 °C, 45 °C, 50 °C, 55 °C and 60 °C, at 190–260 nm wavelength and at a scan speed of […]. The background of the solvent was subtracted. The results are presented as the relationship of mean residue molar ellipticity (MRME) [deg × cm^2 × dmol^−1] to wavelength [nm]. Measurements were performed in triplicate. In order to determine the peptides’ denaturation temperatures, the molar ellipticity rotatory angle at a fixed wavelength of 196 nm, [θ]196, was measured as a function of temperature (max 100 °C). CD temperature measurements were carried out up to a temperature of 100 °C. Above this temperature, the cure was extrapolated with GraphPad Prism 8 software using the 4PL curve fit function. The denaturation temperature was determined as the temperature at which the change in ellipticity (θ) was half complete.

46BR.1N fibroblasts = assay: LDH cytotoxicity assay, 46BR.1N; type: cell-based, human; conditions: 150 µg/ml, 48 h, 3 independent experiments, n = 12
Experimental: Human HaCaT keratinocytes (DKFZ, Heidelberg, Germany)[47],[48], the human dermal fibroblast 46BR.1N cell line (ECACC, Sigma Aldrich Co.) and human primary dermal fibroblasts used in this study were routinely cultured in culture flasks (growth surface area: 25 cm^2) in DMEM-HG medium supplemented with 10% fetal bovine serum, 100 U/mL penicillin and […] streptomycin under standard conditions.
Briefly, the HaCaT and 46BR.1N cells were seeded in 96-well plates at a density of 5000 per well. Cell stimulation with RADA derivatives was performed using a protocol described before[49],[50]. Both assays were performed according to the manufacturers’ instructions (XTT- Roche, Cat. No. 11465015001; LDH- Takara, Cat. No. MK401).

[2] = target: T1, Human neutrophil elastase (Homo sapiens, UniProt P08246); assay: Elastase enzymatic cleavage; type: in vitro ADME; conditions: human neutrophil elastase 150 nM, peptide 1 mM, 30 min, 37 °C; for identified fragments of peptides after elastase digestion (most abundant MS signals): 300 rpm, 0.1 M Tris HCl, 500 mM NaCl, 0.05% Triton X-100, 20 mM CaCl2 pH 7.5, HPLC and MALDI or LC-MS
T1 construct: purchased Sigma-Aldrich
T1 sequence (P08246 30-267): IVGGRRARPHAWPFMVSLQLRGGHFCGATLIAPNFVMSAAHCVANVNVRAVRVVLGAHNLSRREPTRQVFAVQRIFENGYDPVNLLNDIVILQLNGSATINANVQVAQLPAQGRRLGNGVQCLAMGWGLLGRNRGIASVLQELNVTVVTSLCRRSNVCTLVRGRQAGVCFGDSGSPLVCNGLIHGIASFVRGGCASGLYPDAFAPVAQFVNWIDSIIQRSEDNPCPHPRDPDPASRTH
Experimental: Human neutrophil elastase (EC No. 3.4.21.37, Sigma-Aldrich) was used to study peptide susceptibility to that enzyme. Peptides were dissolved in 0.1 M Tris HCl, 500 mM NaCl, 0.05% Triton X-100, 20 mM CaCl2 pH 7.5 buffer mixture. Peptides (final concentration 1 mM) were mixed with the enzyme (final concentration 150 nM) and incubated for 30 min. in a thermoshaker (37 °C, 300 rpm). The reaction was stopped by a 10% aqueous solution of TFA. The results were analyzed using HPLC and MALDI or LC–MS. Details of this experiment are described in the Supplementary Data.

[3] = test system: full-thickness excisional dorsal skin wounds; assay: Skin wound healing model in mice; type: in vivo, BALB/c mice
Experimental: Eight to ten-week-old BALB/c female mice were used for these experiments. All experimental procedures were approved by the Local Ethics Committee for Animal Experimentation in Bydgoszcz, Poland (Approval No. 49/2016). The study was conducted in compliance with the ARRIVE gudidelines. All animal handling methods were carried out in accordance with European Union Commission Recommendation of 18 June 2007 on guidelines for the accommodation and care of animals used for experimental and other scientific purposes. Before experiments, mice were randomized and divided into groups comprising six individuals. The mice were anaesthetized with inhaled 2–5% isoflurane. The skin on the dorsum was shaved and disinfected. After the skin was folded and raised cranially and caudally along the spine, the mouse was placed in a lateral position, and the folded skin was pierced with a 6.0 mm biopsy punch to make two through-and-through symmetrical wounds. Next, 10 µL of peptide hybrid hydrogel was applied onto each wound. Every gel was prepared in sterile conditions in biological safety cabinet, using sterile water to final concentration of 10 mg/ml (1%). Then the gels were incubated for 24 h allowing it to assemble. Control mice were treated with RADA16-I. The wounds were covered with a transparent Tegaderm TM dressing to protect the wound from outer environment of the cage and other animals. It was fastened with an adhesive plaster wrapped around the animal’s torso. The peptide hybrids were applied daily to the wounds for five consecutive days. The dressings were replaced daily in the first five days of the experiment and every second day until the end of the second week of the experiment. To measure the wound areas the wounds were photographed with a ruler placed next to the injury site. Wound areas were calculated using the computer-assisted image analysis program ImageJ[51].

[4] = Transmission electron microscopy of nanofibres; type: physicochemical; conditions: 1% gel in PBS diluted to 0.001%, uranyl acetate stain
Experimental: 1% gel solutions were prepared and incubated in PBS. The samples were then diluted to 0.001% concentration. A drop of solution was applied to a microcellulose membrane and stained with a 1.5% solution of uranyl acetate. The images were registered on a Tecnai Spirit BioTwin FEI Transmission Electron Microscope operating at 120 kV.

storage modulus G’ (Rheology of hydrogels; cone-plate, frequency sweep 0.01–100 rad s−1 at 2.5% strain (Fig. 9 legend: 1%), mean of three repeats): 550 Pa | shear strain above which the gel behaves like a liquid (G” > G’) (Rheology of hydrogels; strain sweep, ω = 6.28 rad/s): above 30% | heat stability of β-sheet structure (rank) ([1]; CD scans at different temperatures): highest | temperature of first disruption of the β-sheets ([1]; CD, [θ]196 nm as function of temperature 4–100 °C, gel 10 mg/ml in water, 37 °C 4 h, diluted to 0.20 mg/ml, decrease of molar ellipticity): ~65 °C | transition temperature (half β-conformation, half disordered) ([1]; CD, [θ]196 nm vs temperature, 0.20 mg/ml in water, above 100 °C curve extrapolated, 4PL fit): 94 °C | identified fragments of peptides after elastase digestion (most abundant MS signals) ([2]; fragment Ac-(RADA)4-GGG-AAPV-COOH): Ac-(RADA)4-GGG-AAPV-COOH | identified fragments of peptides after elastase digestion (most abundant MS signals) ([2]; fragment NH2 -GHK-NH2): NH2 -GHK-NH2 | main / predominant fragments of elastase digestion ([2]; pH 7.5 buffer, HPLC, mass spectrometry): Gly^26His^27Lys^28 | fibre thickness (TEM) [4]: about 3 nm
SMILES: CC(=O)N[C@@H](CCCNC(=N)N)C(=O)N[C@@H](C)C(=O)N[C@@H](CC(=O)O)C(=O)N[C@@H](C)C(=O)N[C@@H](CCCNC(=N)N)C(=O)N[C@@H](C)C(=O)N[C@@H](CC(=O)O)C(=O)N[C@@H](C)C(=O)N[C@@H](CCCNC(=N)N)C(=O)N[C@@H](C)C(=O)N[C@@H](CC(=O)O)C(=O)N[C@@H](C)C(=O)N[C@@H](CCCNC(=N)N)C(=O)N[C@@H](C)C(=O)N[C@@H](CC(=O)O)C(=O)N[C@@H](C)C(=O)NCC(=O)NCC(=O)NCC(=O)N[C@@H](C)C(=O)N[C@@H](C)C(=O)N1CCC[C@H]1C(=O)N[C@H](C(=O)NCC(=O)NCC(=O)NCC(=O)N[C@@H](Cc1c[nH]cn1)C(=O)N[C@@H](CCCCN)C(N)=O)C(C)C [RADA-GHK, Ac-(Arg-Ala-Asp-Ala)4-Gly-Gly-Gly-Ala-Ala-Pro-Val-Gly-Gly-Gly-His-Lys-NH2]
cytotoxicity (LDH), slight effect (46BR.1N fibroblasts): ca. 15% | wound closure on day 7 ([3]; BALB/c female mice, 6.0 mm punch dorsal wounds, 10 µL 1% hydrogel topically daily for five days, n = 6, SD): 41.8 ± 16.1% | wound healing compared to RADA16-I ([3]; BALB/c mice, 1% hydrogel topically, day 2 up to day 14): Accelerated wound healing
